Among the test systems are 786-0 renal; NCI-H23 lung; SK-OV-3 ovarian; K-562 leukemia; A498 renal; CCRF-CEM leukemia; TK-10 renal; SK-MEL-2 melanoma; SN12C renal; HS 578T breast; UACC-257 melanoma; T-47D breast.
Common to all, as to assay: NCI anticancer screen, dose series, 48 h

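Method: 48-hour compound exposure of cells in 96-well plates, five concentrations, linear interpolation of endpoints. TGI marks complete inhibition of growth.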 Where a SMILES comes first, the peptide text is derived from it.

For `Cc1[nH]c2ccccc2c1C1=CC(=O)N(c2ccccc2)C1=O`, the TGI in the experiment on 786-0 renal was 31.4 µM; with NCI-H23 lung, 60.9 µM; in the experiment with SK-OV-3 ovarian, greater than 100 µM; with K-562 leukemia it was 29.8 µM; with A498 renal it was 60.3 µM; in the experiment on CCRF-CEM leukemia, 73.4 µM. The TGI in the experiment on TK-10 renal was 60.7 µM; in the experiment on SK-MEL-2 melanoma it was 31.5 µM; in the experiment with SN12C renal it was 86 µM; in the experiment on HS 578T breast, 43.5 µM; in the experiment with UACC-257 melanoma, 61.5 µM.
Take `CC(C)(C)N=c1n(C(C)(C)C)oc(=O)n1-c1ccccc1`: the TGI with 786-0 renal, in the experiment on NCI-H23 lung, in the experiment on SK-OV-3 ovarian, with K-562 leukemia, in the experiment with A498 renal and in the experiment on CCRF-CEM leukemia was greater than 50 µM in each case. Moreover, the TGI in the experiment with TK-10 renal, in the experiment on SK-MEL-2 melanoma, in the experiment with SN12C renal, with HS 578T breast and in the experiment on UACC-257 melanoma was greater than 50 µM throughout.
As to `CCOC(=O)NC(=S)NC(C)c1ccccc1` (stereo not given), the TGI with 786-0 renal, in the experiment with NCI-H23 lung, with SK-OV-3 ovarian, in the experiment on K-562 leukemia, in the experiment with CCRF-CEM leukemia and in the experiment on TK-10 renal was greater than 100 µM throughout. Besides, the TGI with SK-MEL-2 melanoma, with HS 578T breast, in the experiment with UACC-257 melanoma and in the experiment with T-47D breast was greater than 100 µM throughout.
With `COc1ccccc1Cn1[nH]c(=O)c2cc([N+](=O)[O-])ccc21`, the TGI in the experiment with 786-0 renal, in the experiment with NCI-H23 lung, with K-562 leukemia, in the experiment with A498 renal, with CCRF-CEM leukemia and in the experiment with TK-10 renal was greater than 100 µM each time. Moreover, the TGI with SK-MEL-2 melanoma, in the experiment with SN12C renal, in the experiment on HS 578T breast and with UACC-257 melanoma was greater than 100 µM throughout.
Take `CC[C@H](C)[C@H]1NC(=O)[C@@H](NC(=O)[C@@H](CC(C)C)N(C)C(=O)C2CCCN2C(=O)[C@H](C)O)[C@@H](C)OC(=O)[C@H](Cc2ccccc2)N(C)C(=O)[C@@H]2CCCN2C(=O)[C@H](CC(C)C)NC(=O)[C@@H](C)C(=O)[C@H](C(C)C)OC(=O)C[C@@H]1O` (stereo not given in full): the TGI in the experiment on 786-0 renal is 0.0119 µM; in the experiment with SK-OV-3 ovarian, 0.101 µM; with K-562 leukemia, greater than 62.5 µM; in the experiment with A498 renal it was 0.0508 µM; with CCRF-CEM leukemia it was greater than 62.5 µM; in the experiment with TK-10 renal, 0.00848 µM. Besides, the TGI in the experiment on SK-MEL-2 melanoma is 0.0954 µM; in the experiment with SN12C renal, greater than 14.5 µM; with HS 578T breast, 0.0114 µM; with UACC-257 melanoma it was less than 0.00625 µM.
With `CC(Cc1ccc2c(c1)OCO2)N(C)C(=O)C1=CCN(C)CC1` (stereo not given), the TGI in the experiment on 786-0 renal, in the experiment on NCI-H23 lung, in the experiment on SK-OV-3 ovarian, with K-562 leukemia, in the experiment with CCRF-CEM leukemia and with TK-10 renal was greater than 100 µM in each case. Further, the TGI in the experiment on SK-MEL-2 melanoma, in the experiment on SN12C renal, with HS 578T breast, in the experiment on UACC-257 melanoma and in the experiment with T-47D breast was greater than 100 µM in each case.
Regarding `O=C1Cc2ccccc2CCc2ccsc21`, the TGI with 786-0 renal, in the experiment on NCI-H23 lung, with SK-OV-3 ovarian, with K-562 leukemia, in the experiment on A498 renal and in the experiment with CCRF-CEM leukemia was greater than 100 µM in each case. The TGI in the experiment on TK-10 renal, in the experiment with SK-MEL-2 melanoma, in the experiment with SN12C renal and with UACC-257 melanoma was greater than 100 µM each time.
Consider `Cc1ccc(-n2cc(-c3ccc(Cl)cc3)c(C#N)c2N)cc1`, for which the TGI in the experiment on 786-0 renal is 29.1 µM; in the experiment on NCI-H23 lung it was 31.5 µM; with SK-OV-3 ovarian, 43.4 µM; in the experiment with K-562 leukemia, 47.9 µM; with A498 renal, 35.6 µM; in the experiment on CCRF-CEM leukemia, greater than 100 µM. The TGI in the experiment with TK-10 renal was 28.2 µM; in the experiment with SK-MEL-2 melanoma, 29.4 µM; in the experiment on SN12C renal, 28 µM; with HS 578T breast, 17.2 µM; in the experiment with UACC-257 melanoma it was 27.9 µM.
With `CC(=O)NC(CO)C(=O)NC(Cc1ccc(O)cc1)C(=O)NCC(N)=O` (stereo not drawn) (Ac-Ser-Tyr-Gly-NH2; configuration not given here), the TGI in the experiment on 786-0 renal, in the experiment on NCI-H23 lung, with SK-OV-3 ovarian, in the experiment with K-562 leukemia, in the experiment on A498 renal and with CCRF-CEM leukemia was greater than 100 µM in each case. The TGI in the experiment with TK-10 renal, with SK-MEL-2 melanoma, in the experiment on SN12C renal, in the experiment on UACC-257 melanoma and in the experiment with T-47D breast was greater than 100 µM each time.
Turning to `Cc1cc(Cl)ccc1NC(=O)C(=O)Cc1occc(=O)c1O`, the TGI with 786-0 renal, with NCI-H23 lung, in the experiment on SK-OV-3 ovarian, in the experiment on K-562 leukemia, in the experiment with A498 renal and with CCRF-CEM leukemia was greater than 100 µM each time. For the same compound, the TGI with TK-10 renal, with SK-MEL-2 melanoma, in the experiment with SN12C renal and in the experiment on UACC-257 melanoma was greater than 100 µM throughout.
Turning to `N#Cc1c(N2CCOCC2)ncn(-c2ccc(Cl)cc2)c1=O`, the TGI in the experiment with 786-0 renal, in the experiment on NCI-H23 lung, in the experiment with SK-OV-3 ovarian, with K-562 leukemia, in the experiment with A498 renal and in the experiment with CCRF-CEM leukemia was greater than 100 µM in each case. Besides, the TGI in the experiment on SK-MEL-2 melanoma, in the experiment with SN12C renal, in the experiment with UACC-257 melanoma and in the experiment with T-47D breast was greater than 100 µM throughout.
On to `COC1C(OC(N)=O)C(O)C(Oc2ccc3c(O)c(NC(=O)c4ccc(O)c(CC=C(C)C)c4)c(=O)oc3c2C)OC1(C)C` (stereo not given), for which the TGI in the experiment on 786-0 renal, in the experiment on SK-OV-3 ovarian, in the experiment with K-562 leukemia, in the experiment with A498 renal, in the experiment with CCRF-CEM leukemia and in the experiment on SK-MEL-2 melanoma was greater than 100 µM in each case. The TGI in the experiment on SN12C renal, in the experiment with UACC-257 melanoma and in the experiment with T-47D breast was greater than 100 µM in each case.
`CN(C)C(=O)Oc1ccc(C(=S)Nc2ccccc2)cc1Br`: the TGI in the experiment with 786-0 renal was greater than 100 µM; with NCI-H23 lung it was 57.3 µM; with SK-OV-3 ovarian it was greater than 100 µM; in the experiment with K-562 leukemia it was greater than 100 µM; in the experiment with CCRF-CEM leukemia it was 48.6 µM; in the experiment with SK-MEL-2 melanoma, 71.5 µM. For the same compound, the TGI was greater than 100 µM in the experiment with HS 578T breast, 74 µM in the experiment with UACC-257 melanoma and 80.9 µM in the experiment with T-47D breast.
On to `Cn1nc(C(=O)N2CC(CCl)c3c2cc([N+](=O)[O-])c2ccccc32)cc1NC(=O)Nc1cc(C(=O)N2CC(CCl)c3c2cc([N+](=O)[O-])c2ccccc32)nn1C` (stereo not given), for which the TGI in the experiment on 786-0 renal, with NCI-H23 lung, in the experiment on SK-OV-3 ovarian, in the experiment on K-562 leukemia, with A498 renal and with TK-10 renal was greater than 100 µM each time. For the same compound, the TGI in the experiment on SK-MEL-2 melanoma, in the experiment on SN12C renal, in the experiment with UACC-257 melanoma and in the experiment with T-47D breast was greater than 100 µM in each case.
Consider `Cc1ccc(Nc2cn(COCc3ccccc3)c(=O)[nH]c2=O)cc1`, for which the TGI in the experiment with 786-0 renal, in the experiment with NCI-H23 lung, in the experiment with K-562 leukemia, in the experiment with A498 renal, in the experiment on CCRF-CEM leukemia and in the experiment on SN12C renal was greater than 100 µM throughout. In addition, the TGI with HS 578T breast and in the experiment with UACC-257 melanoma was greater than 100 µM in each case.
Turning to `COC(=O)CCC1(O)C=CC(=O)C=C1`, the TGI was greater than 100 µM with 786-0 renal; 97.4 µM with NCI-H23 lung; greater than 100 µM with K-562 leukemia; greater than 100 µM with A498 renal; greater than 100 µM in the experiment on CCRF-CEM leukemia; greater than 100 µM with TK-10 renal. Besides, the TGI with SK-MEL-2 melanoma is greater than 100 µM; with SN12C renal, greater than 100 µM; with HS 578T breast, greater than 100 µM; in the experiment on UACC-257 melanoma, 66.3 µM.
With `CC(C)c1cccc(C(C)C)c1NC(=O)C(=O)C1SC(=S)NC1=O` (stereo not given), the TGI in the experiment on 786-0 renal, with NCI-H23 lung, in the experiment with SK-OV-3 ovarian, in the experiment with K-562 leukemia, in the experiment on A498 renal and in the experiment with CCRF-CEM leukemia was greater than 100 µM throughout. Besides, the TGI in the experiment on TK-10 renal, with SK-MEL-2 melanoma, in the experiment with SN12C renal and in the experiment on UACC-257 melanoma was greater than 100 µM each time.
Consider `CC(=O)C1C(=O)C(=O)N(c2ccc(Br)cc2)C1=O` (stereo not given), for which the TGI in the experiment with 786-0 renal, in the experiment on NCI-H23 lung, in the experiment on SK-OV-3 ovarian, with CCRF-CEM leukemia, in the experiment on TK-10 renal and with SK-MEL-2 melanoma was greater than 100 µM each time. Also, the TGI with SN12C renal, in the experiment with HS 578T breast and in the experiment with UACC-257 melanoma was greater than 100 µM in each case.
For `Cc1nc2nn(C)cc2c(=O)n1/N=C/c1ccccc1`, the TGI in the experiment with 786-0 renal, in the experiment on NCI-H23 lung, with SK-OV-3 ovarian, in the experiment on K-562 leukemia, in the experiment on A498 renal and with CCRF-CEM leukemia was greater than 100 µM each time. In addition, the TGI in the experiment with TK-10 renal, with SK-MEL-2 melanoma, with SN12C renal and with UACC-257 melanoma was greater than 100 µM throughout.

Source of the values: PubChem BioAssay (NCI).
